Experimental data taken from patent US20230233569A1 (Revolution Medicines, Inc., priority 2020, published 2023).

What was measured:
[1] = target: KRAS G12D (Homo sapiens, UniProt P01116+P62937, G12D); assay: Disruption of BRAF RBD interaction with Ras (FRET / MOA assay, with Cyclophilin A); assay type: biochemical; settings: read-out: KRAS G12D FRET data, IC50
Method in brief: (§1)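 First, compounds at a ten-point threefold dilution series (highest final concentration 30 μM) were incubated with nucleotide-loaded K-Ras, Cyclophilin A and BRAF RBD for 3 h at 25 °C. Next, detection antibodies were added for 1.5 h. Finally, IC50 was calculated from TR-FRET ratio decreases against DMSO controls.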

[2] = target: KRAS G13C (Homo sapiens, UniProt P01116+P62937, G13C); assay: as above; assay type: biochemical; settings: KRAS G13C; read-out: KRAS G13C FRET data IC50
Chain of KRAS G13C (P01116 1-169 isoform P01116-2 G13C): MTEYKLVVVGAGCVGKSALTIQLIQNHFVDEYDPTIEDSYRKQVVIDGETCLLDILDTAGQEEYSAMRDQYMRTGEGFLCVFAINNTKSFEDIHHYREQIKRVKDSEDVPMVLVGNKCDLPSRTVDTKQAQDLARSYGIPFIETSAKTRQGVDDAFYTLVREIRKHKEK
Chain of KRAS G13C (P62937 whole entry): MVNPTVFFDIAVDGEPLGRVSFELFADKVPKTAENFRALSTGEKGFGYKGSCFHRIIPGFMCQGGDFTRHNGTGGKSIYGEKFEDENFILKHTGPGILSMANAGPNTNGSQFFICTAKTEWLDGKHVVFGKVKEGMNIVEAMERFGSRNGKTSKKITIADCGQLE
Method in brief: as §1

[3] = target: KRAS G12S (Homo sapiens, UniProt P01116+P62937, G12S); assay: as above; assay type: biochemical; settings: read-out: KRAS G12S FRET data, IC50
Chain of KRAS G12S (P01116 1-169 isoform P01116-2 G12S limits assumed): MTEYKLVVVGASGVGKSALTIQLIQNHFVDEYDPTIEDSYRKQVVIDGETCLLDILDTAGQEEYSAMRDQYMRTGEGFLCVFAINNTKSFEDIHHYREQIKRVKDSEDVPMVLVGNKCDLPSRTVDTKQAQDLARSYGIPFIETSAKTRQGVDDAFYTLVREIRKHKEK
Chain of KRAS G12S (P62937 whole entry): as the sequence (P62937 whole entry) above
Method in brief: as §1

[4] = target: KRAS G12C (Homo sapiens, UniProt P01116+P62937, G12C); assay: as above; assay type: biochemical; settings: KRAS G12C; read-out: KRAS G12C FRET data IC50
Chain of KRAS G12C (P01116 1-169 isoform P01116-2 G12C): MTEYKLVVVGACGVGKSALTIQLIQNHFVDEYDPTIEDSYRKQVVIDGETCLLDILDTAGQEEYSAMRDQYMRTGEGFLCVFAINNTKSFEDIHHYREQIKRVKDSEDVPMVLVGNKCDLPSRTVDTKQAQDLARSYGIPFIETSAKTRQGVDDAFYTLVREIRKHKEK
Chain of KRAS G12C (P62937 whole entry): as the sequence (P62937 whole entry) above
Method in brief: as §1

[5] = target: KRAS G12V (Homo sapiens, UniProt P01116+P62937, G12V); assay: as above; assay type: biochemical; settings: KRAS G12V; read-out: KRAS G12V FRET data IC50
Chain of KRAS G12V (P01116 1-169 isoform P01116-2 G12V limits assumed): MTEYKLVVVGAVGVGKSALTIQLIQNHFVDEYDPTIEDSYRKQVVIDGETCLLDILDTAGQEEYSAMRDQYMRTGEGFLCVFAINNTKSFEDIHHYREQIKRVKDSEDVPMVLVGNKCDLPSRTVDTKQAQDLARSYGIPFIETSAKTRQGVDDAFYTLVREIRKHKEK
Chain of KRAS G12V (P62937 whole entry): as the sequence (P62937 whole entry) above
Method in brief: as §1

[6] = target: KRAS WT (Homo sapiens, UniProt P01116+P62937); assay: as above; assay type: biochemical; settings: KRAS WT; read-out: KRAS WT FRET data IC50
Chain of KRAS WT (P01116 1-169 isoform P01116-2 limits assumed): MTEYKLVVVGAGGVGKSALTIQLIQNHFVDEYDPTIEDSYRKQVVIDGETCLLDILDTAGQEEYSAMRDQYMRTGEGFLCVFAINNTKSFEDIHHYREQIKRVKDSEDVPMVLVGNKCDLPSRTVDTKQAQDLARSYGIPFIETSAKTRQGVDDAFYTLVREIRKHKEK
Chain of KRAS WT (P62937 whole entry): as the sequence (P62937 whole entry) above
Method in brief: as §1

[7] = target: KRAS G13D (Homo sapiens, UniProt P01116+P62937, G13D); assay: as above; assay type: biochemical; settings: KRAS G13D; read-out: KRAS G13D FRET data IC50
Chain of KRAS G13D (P01116 1-169 isoform P01116-2 G13D limits assumed): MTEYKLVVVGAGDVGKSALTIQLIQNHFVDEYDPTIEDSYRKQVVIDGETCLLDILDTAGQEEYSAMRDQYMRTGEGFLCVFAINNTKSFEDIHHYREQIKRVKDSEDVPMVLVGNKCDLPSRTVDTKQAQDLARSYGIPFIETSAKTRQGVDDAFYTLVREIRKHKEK
Chain of KRAS G13D (P62937 whole entry): as the sequence (P62937 whole entry) above
Method in brief: as §1

[8] = target: NRAS G12C (Homo sapiens, UniProt P01111+P62937, G12C); assay: as above; assay type: biochemical; settings: NRAS G12C; read-out: NRAS G12C FRET data IC50
Chain of NRAS G12C (P01111 whole entry G12C): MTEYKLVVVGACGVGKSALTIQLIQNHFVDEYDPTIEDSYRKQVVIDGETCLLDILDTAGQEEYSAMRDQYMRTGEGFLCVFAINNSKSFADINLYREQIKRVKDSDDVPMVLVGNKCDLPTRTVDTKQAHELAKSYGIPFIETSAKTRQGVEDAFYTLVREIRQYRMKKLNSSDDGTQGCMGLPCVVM
Chain of NRAS G12C (P62937 whole entry): as the sequence (P62937 whole entry) above

[9] = tested on: K-Ras G12C (NCI-H358 cells); assay: Potency assay: pERK (AlphaLISA SureFire or In-Cell Western); assay type: cell-based; settings: Homo sapiens, NCI-H358; H358 KRAS G12C; read-out: pERK EC50
Method in brief: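 NCI-H358 cells plated overnight, then treated 4 h at 37 °C with 10-point 3-fold DMSO dilutions (10 mM top stock), in duplicate. pERK1/2 read by AlphaLISA SureFire Ultra lysate assay or by In-Cell Western with DRAQ5 DNA stain. IC50 from 4-parameter sigmoidal fit of signal vs log concentration.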

Chain of KRAS G12D (P01116 1-169 isoform P01116-2 G12D limits assumed): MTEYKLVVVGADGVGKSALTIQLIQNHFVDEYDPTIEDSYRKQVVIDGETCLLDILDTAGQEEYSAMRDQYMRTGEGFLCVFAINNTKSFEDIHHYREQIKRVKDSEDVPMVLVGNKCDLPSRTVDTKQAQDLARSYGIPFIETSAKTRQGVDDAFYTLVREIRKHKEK
Chain of KRAS G12D (P62937 whole entry): as the sequence (P62937 whole entry) above

| Structure (SMILES) | IC50 [1] [nM] | IC50 [2] [nM] | IC50 [3] [nM] | IC50 [4] [nM] | IC50 [5] [nM] | IC50 [6] [nM] | IC50 [7] [nM] | IC50 [8] [nM] | EC50 [9] [nM] |
| --- | --- | --- | --- | --- | --- | --- | --- | --- | --- |
| C=CC(=O)N1CC[C@H](C(=O)N(C)[C@H](C(=O)N[C@H]2Cc3cc(O)cc(c3)-c3ccc4c(c3)c(c(-c3ccnc5c3[C@@H](OC)CC5)n4CC)CC(C)(C)COC(=O)[C@@H]3CCCN(N3)C2=O)C(C)C)C1 [Example A275] | 100 to 1000 | 10 to 100 | 10 to 100 | 10 to 100 | 10 to 100 | 100 to 1000 | 100 to 1000 | 10 to 100 | < 5000 |
| C=CC(=O)N1CC[C@@H](N(C)C(=O)N(C)[C@H](C(=O)N[C@H]2Cc3nc(cs3)-c3ccc4c(c3)c(c(-c3cccnc3[C@H](C)OC)n4CC)CC(C)(C)COC(=O)[C@@H]3CCCN(N3)C2=O)C(C)C)C1 [Example A349] | 100 to 1000 | 100 to 1000 | 100 to 1000 | 10 to 100 | 100 to 1000 | 100 to 1000 | 100 to 1000 | 10 to 100 | < 5000 |
| CCn1c(-c2cccnc2[C@H](C)OC)c2c3cc(ccc31)-c1csc(n1)C[C@H](NC(=O)[C@H](C(C)C)N(C)C(=O)N1CC(N(C)C(=O)C#CC(C)(C)N3CCC3)C1)C(=O)N1CCC[C@H](N1)C(=O)OCC(C)(C)C2 [Example A379] | 1000 to 10000 | 10 to 100 | 100 to 1000 | < 10 | 100 to 1000 | 100 to 1000 | 100 to 1000 | 10 to 100 | < 5000 |
| CCn1c(-c2cccnc2[C@H](C)OC)c2c3cc(ccc31)N1CCO[C@@](C)(CC(NC(=O)[C@H](C(C)C)N(C)C(=O)C3(F)CCN(C(=O)C#CC(C)(C)N(C)C)CC3)C(=O)N3CCC[C@H](N3)C(=O)OCC(C)(C)C2)C1 (stereo partly drawn) [Example A550] | 1000 to 10000 | 100 to 1000 | 1000 to 10000 | < 10 | 100 to 1000 | 100 to 1000 | 1000 to 10000 | < 10 | < 5000 |
| C=CC(=O)N1CCO[C@H]2CN(C(=O)N(C)[C@H](C(=O)N[C@H]3CN4CCC=C(C4)c4ccc5c(c4)c(c(-c4cccnc4[C@H](C)OC)n5CC)CC(C)(C)COC(=O)[C@@H]4CCCN(N4)C3=O)C(C)C)C[C@H]21 [Example A552] | 1000 to 10000 | 10 to 100 | 1000 to 10000 | 10 to 100 | 1000 to 10000 | 100 to 1000 | 1000 to 10000 | 10 to 100 | < 5000 |
| CO[C@@H](COC1CN(C(=O)C#CC(C)(C)N(C)C)C1)C(=O)N[C@H]1Cc2cccc(c2)-c2ccc3c(c2)c(c(-c2cccnc2[C@H](C)OC)n3CC(F)(F)F)CC(C)(C)COC(=O)[C@@H]2CCCN(N2)C1=O [Example A556] | > 10000 | 1000 to 10000 | > 10000 | < 10 | 1000 to 10000 | 1000 to 10000 | > 10000 | < 10 | < 5000 |
| CCn1c(-c2cccnc2[C@H](C)OC)c2c3cc(ccc31)-c1cccc(c1)C[C@H](NC(=O)[C@H](C(C)C)N1CC[C@]3(CCN(C(=O)C#C[C@]4(N(C)C)CCOC4)C3)C1=O)C(=O)N1CCC[C@H](N1)C(=O)OCC(C)(C)C2 [Example A559] | 1000 to 10000 | 100 to 1000 | 1000 to 10000 | 10 to 100 | 1000 to 10000 | 1000 to 10000 | 1000 to 10000 | 10 to 100 | < 5000 |
| C=CC(=O)N1CCOC2(CCN(C(=O)N(C)[C@H](C(=O)N[C@H]3CN4CCC=C(C4)c4ccc5c(c4)c(c(-c4cccnc4[C@H](C)OC)n5CC)CC(C)(C)COC(=O)[C@@H]4CCCN(N4)C3=O)C(C)C)CC2)C1 [Example A563] | > 10000 | 100 to 1000 | 1000 to 10000 | 100 to 1000 | 1000 to 10000 | 1000 to 10000 | 1000 to 10000 | 100 to 1000 | < 5000 |
